Where two headings read alike, the source gives them in different places.

The subject of data set [1] is Chung model of neuropathic pain (tactile allodynia). In words: Chung model of neuropathic pain, tactile antiallodynia effect. Conditions: rats, p.o. The data set is classed as in vivo. From the text:
The compounds may be tested for their potential for the treatment of chronic pain (antiallodynic and antihyperalgesic activities) in the Chung model of peripheral neuropathy. Male Sprague-Dawley rats weighing between 200-225 g were anesthetized with halothane (1-3% in a mixture of 70% air and 30% oxygen) and their body temperature controlled during anesthesia through use of a homeothermic blanket. A 2-cm dorsal midline incision was then made at the L5 and L6 level and the para-vertibral muscle groups retracted bilaterally. L5 and L6 spinal nerves were then be exposed, isolated, and tightly ligated with 6-0 silk suture. A sham operation was performed exposing the contralateral L5 and L6 spinal nerves as a negative control.
Tactile Allodynia: Rats were transferred to an elevated testing cage with a wire mesh floor and allowed to acclimate for five to ten minutes. A series of Semmes-Weinstein monofilaments were applied to the plantar surface of the hindpaw to determine the animal's withdrawal threshold. […] This procedure was repeated with subsequent lesser filaments until there was no response and the lightest filament that elicited a response was recorded. […] For each animal, three measurements were made at every time point to produce an average withdrawal threshold determination. Tests were performed prior to and at 1, 2, 4 and 24 hours post drug administration. Tactile allodynia and mechanical hyperalgesia tests were conducted concurrently.
The tactile antiallodynia effect of the compounds listed in Table 4 was tested in the Chung model of neuropathic pain in rats as described above and described by Kim and Chung (Pain 50:355-363 (1992)). […]

Data set [2] relates to maximal electroshock-induced seizures (MES). Briefly: Maximum electroshock seizure test (MES), anticonvulsant evaluation. It is filed as in vivo. Conditions: Mus musculus, mice. From the text: The compounds of the present invention may be tested for in vivo anticonvulsant activity after i.v., p.o. or i.p. injection using a number of anticonvulsant tests in mice, including the maximum electroshock seizure test (MES). Maximum electroshock seizures were induced in male NSA mice weighing between 15-20 g and male Sprague-Dawley rats weighing between 200-225 g by application of current (50 mA, 60 pulses/sec, 0.8 msec pulse width, 1 sec duration, D.C., mice; 99 mA, 125 pulses/sec, 0.8 msec pulse width, 2 sec duration, D.C., rats) using a Ugo Basile ECT device (Model 7801). Mice were restrained by gripping the loose skin on their dorsal surface and saline-coated corneal electrodes were held lightly against the two corneae. Rats were allowed free movement on the bench top and ear-clip electrodes were used. […] A tonic seizure was defined as a hindlimb extension in excess of 90 degrees from the plane of the body. Results were treated in a quantal manner.
The ability of 4-[4-(4-fluorophenoxy)phenyl]-pyrimidine-2-carboxamide to block maximal electroshock-induced seizures (MES) was determined according to the method above.
4-[4-(4-Fluorophenoxy)phenyl]-pyrimidine-2-carboxamide was administered p.o. to mice 30 minutes before the test procedure.
The following compounds on Table 1 were tested accordingly after a p.o. administration and also after an i.v. injection. The compounds were injected i.v. 15 minutes before the test procedure.

The target in data set [3] is rBIIA isoform of Na+ channels (Rattus norvegicus, UniProt P04775). Briefly: Electrophysiological Assay 1: patch-clamp of voltage-sensitive Na+ currents in HEK-293 cells. The data set is classed as cell-based. Conditions: HEK-293 cells stably expressing rBIIA; for Ki: apparent antagonist dissociation constant for inactivated sodium channels. As to the method:
Cell preparation: HEK-293 (NaIIA-B2) cell line stably expressing the rBIIA isoform of Na^+ channels was established in-house. The cells were cultured using standard techniques, as described previously (Verdoom, T. A, et al., Neuron 4:919-928 (1990)). For electrophysiology, cells were plated onto poly-D-lysine pre-coated Cellware 35 mm Petri dishes (BIOCOAT, Becton Dickinson) at a density of ˜10^4 cells/dish on the day of re-seeding from confluent cultures. Our experience has been that cells are suitable for recordings for 2-3 days after plating.
Patch-clamp recordings of voltage-sensitive Na^+ currents: Whole-cell voltage-clamp recordings were made using conventional patch-clamp techniques (Hamill et al., Pfluegers Arch. 391:85-100 (1981)) with an Axopatch 200A amplifier (Axon Instruments, Foster City, Calif.). The recording chamber was continuously superfused with the external solution (150 mM NaCl, 5.4 mM KCl, 1.8 mM CaCl2, 1 mM MgCl2, 10 mM HEPES, 10 mM glucose, pH 7.4 adjusted with NaOH, osmolality ˜320 mmol/kg) at a speed of about 1 mL/min. Recording pipettes were pulled from the thick-walled capillaries (WPI, Sarasota, Fla.) and fire-polished. The pipette resistances ranged from 1 to 3 MΩ when the pipettes were filled with internal solution containing (in mM): 130 CsF, 20 NaCl, 2 MgCl2, 10 EGTA, 10 HEPES, pH adjusted to 7.4 with CsOH, osmolality ˜310 mmol/kg. Drugs and intervening wash-outs were applied through a linear array of flow pipes (Drummond Microcaps, 2 μL, 64-mm length). Compounds are dissolved in dimethylsulfoxide (DMSO) to make a 30 mM stock solution, which was subsequently diluted into the external solution to give final concentrations of 0.1-100 μM. At the highest (1%) concentration, DMSO inhibited the size of Na^+ current only slightly. Currents were recorded at room temperature (22-25° C.), filtered at 3 kHz with an active 8-pole Bessel filter (Frequency Devices, Haverhill, Mass.), digitized at 10-50 μs intervals, and stored using Digidata 1200 analog/digital interface with Pclamp6/Clampex software (Axon Instruments). Series resistance was cancelled typically by ˜75% when necessary.
The following voltage pulse protocols A, B, C, and D were used to assess the potency and kinetics of inhibition of the Na^+ channels by the compounds (FIGS. 1A-1D).
Current-voltage relationship (IV-curve), protocol A (FIG. 1A), was used to report the voltage at which the maximal inward Na^+ current is achieved. This voltage was used throughout the experiment as testing voltage, Vt. The steady-state inactivation (or, availability) curve, protocol C (FIG. 1C), was used to get the voltage at which almost complete (≧95%) inactivation of Na^+ channels occurs; it served as voltage for conditioning prepulse, Vc, throughout the experiment. Protocol B (FIG. 1B) reports how fast the channels recover from inactivation at hyperpolarized voltages. This permitted us to set up the duration of the hyperpolarization gap which is used in measurement of the kinetics of binding of compounds to inactivated Na^+ channels (protocol D (FIG. 1D)). Channel repriming under control conditions was fast (≧90% recovery during first 5-10 ms). If a drug substantially retards the repriming process then it becomes possible (protocol D) to accurately measure the kinetics of binding of the inhibitor to inactivated channels as well as the steady-state affinity (k+ and Ki). To estimate k+ values the reduction in peak currents in successive trials with varying pre-pulse duration was plotted as a function of pre-pulse duration and the time constant (τ) measured by mono-exponential fit. A plot of 1/τ as a function of antagonist concentration then allowed calculating of the macroscopic binding rates of the antagonists. […]
(The patch-clamp technique gives a direct electrical read-out from membranes.)

Setting [4] is: iv, i.v. injection 15 minutes before the test, read-out: MES i.v. ED50.
[5] abbreviates: po, p.o., 30 minutes before the test, ED50 = dose protecting 50% of animals, read-out: MES p.o. ED50.

For the compound `NC(=O)c1ccnc(-c2ccc(Oc3ccc(F)cc3)cc2)n1` [2-[4-(4-Fluorophenoxy)phenyl]pyrimidine-4-carboxamide], the “MED (minimal effective dose)” value in data set [1] is reported as 2.50 Mg/kg. In addition, the ED50 was 2.5 mg/kg in data set [2] (setting [4]) and 7.5 mg/kg in data set [2] (setting [5]). In addition, in data set [3], the Ki was found to be 100 nM.

Take `NC(=O)c1nccc(-c2ccc(Oc3ccc(F)cc3F)cc2)n1` [4-[4-(2,4-Difluorophenoxy)phenyl]-pyrimidine-2-carboxamide]: the ED50 turned out to be 0.9 mg/kg in data set [2] (setting [4]) and 1.4 mg/kg in data set [2] (setting [5]). Besides, the Ki in data set [3] amounted to 360 nM.

Take `NC(=O)c1nc(-c2ccc(Oc3ccccc3)cc2)c(N)nc1N` [3,5-Diamino-6-(4-phenoxyphenyl)pyrazine-2-carboxamide]: in data set [3], the Ki worked out at 2200 nM.

For `CN(C)C(=O)c1nccc(-c2ccc(Oc3ccc(F)cc3)cc2)n1` [4-[4-(4-Fluorophenoxy)phenyl]-pyrimidine-2-carboxylic acid dimethylamide], in data set [3], the Ki is 13500 nM.

`NC(=O)c1cccc(-c2ccc(Oc3ccccc3)cc2)n1` [6-(4-Phenoxyphenyl)pyridine-2-carboxamide] came in with a melting point of 178 to 180 °C. For the same compound, in data set [2] (setting [4]), the ED50 is 3.2 mg/kg. Moreover, in data set [2] (setting [5]), the median effective dose (ED50) worked out at 10.5 mg/kg.

Regarding `O=C(O)c1nccc(-c2ccc(Oc3ccc(F)cc3)cc2)n1` [4-[4-(4-Fluorophenoxy)phenyl]-pyrimidine-2-carboxylic acid], the Ki in data set [3] is 51000 nM.

For the compound `NC(=O)c1ccnc(-c2ccc(Oc3ccc(Cl)cc3F)cc2)n1` [2-[4-(4-Chloro-2-fluorophenoxy)phenyl]pyrimidine-4-carboxamide], the “MED (minimal effective dose)” value in data set [1] is recorded as 1.25 Mg/kg. For the same compound, the figures for the ED50 in data set [2] (setting [4]) and in data set [2] (setting [5]) were 2.3 mg/kg and 5.7 mg/kg, respectively. The Ki in data set [3] worked out at 220 nM.

With `NC(=O)c1nccc(-c2ccc(Oc3ccc(F)cc3)cc2)n1` [4-[4-(4-Fluorophenoxy)phenyl]-pyrimidine-2-carboxamide], the ED50 in data set [2] (setting [4]) amounted to 0.7 mg/kg. In data set [2] (setting [5]), the ED50 stood at 1.6 mg/kg. In data set [3], the “inhibition of voltage-gated sodium currents” value is “dose-dependent inhibition” and the Ki turned out to be 490 nM.

In the case of `CC(C)(C)NC(=O)c1nccc(-c2ccc(Oc3ccc(F)cc3)cc2)n1` [4-[4-(4-Fluorophenoxy)phenyl]-pyrimidine-2-carboxylic acid tert-butylamide], the Ki in data set [3] amounted to 180 nM.

`Fc1ccc(Oc2ccc(-c3nccc(-c4nc[nH]n4)n3)cc2)cc1` [2-[4-(4-fluorophenoxy)phenyl]-4-[3-(1,2,4-triazolyl)]pyrimidine]: the Ki in data set [3] was 20000 nM.

Turning to `NC(=O)c1cccc(-c2ccc(Oc3ccc(F)cc3)cc2)n1` [6-[4-(4-Fluorophenoxy)phenyl]pyridine-2-carboxamide], in data set [1], the “MED (minimal effective dose)” value is 2.50 Mg/kg. Moreover, the results for the ED50 in data set [2] (setting [4]) and in data set [2] (setting [5]) were 1.2 mg/kg and 3.3 mg/kg, respectively. Besides, the Ki in data set [3] turned out to be 70 nM.

On to `NC(=O)c1nccc(-c2ccc(Oc3ccc(C(F)(F)F)cc3)cc2)n1` [4-[4-(4-Trifluoromethylphenoxy)phenyl]-pyrimidine-2-carboxamide], for which the ED50 in data set [2] (setting [4]) came to 0.5 mg/kg; in data set [2] (setting [5]), 2.5 mg/kg. Also, the Ki in data set [3] amounted to 210 nM.

The ED50 is the dose at which the effect has come halfway, by size or by number of responders. What is called melting point is the temperature of the solid-liquid transition.

Source of the values: patent US6867210B2, “Aryl substituted pyrimidines” (Euro-Celtique S.A., priority 2000, dated 2005).
